From paper PMC7118210 (Frontiers in Pharmacology, 2020)

Experiments:
[1] = Metabolites in rat kidney microsomes (system III-rat); format: in vitro ADME, Sprague-Dawley rat
Method: (§1) Then, NADPH-B (10 μl) was added and incubated for 2 h. […] Then, UDPGA (50 μl) was added and incubated for 2 h. […] Then, UDPGA (50 μl) was added and incubated for 2 h. In addition, the naringenin solution (1 mM, 10 μl) was evaluated in rat systems I, II, and III as above.
The incubated solution (500 μl) of systems I-rat, II-rat, III-rat, I-human, and II-human were extracted with ethyl acetate (500 μl) for at least 3 min by vortexing and centrifuged for 10 min at 13,000 rpm and 4°C. The extraction process described above was performed twice and all supernatants were transferred into centrifuge tubes, dried with N2, and dissolved with methanol-water (1:1, v/v). All samples were injected into a UPLC/Q-TOF-MS system consisting of a Waters Acquity ultra performance liquid chromatography (UPLC) coupled with a Micromass micro™ quadrupole time-of-flight mass spectrometry (Q-TOF-MS) system (Waters Corp., Milford, MA, USA), equipped with an electrospray ionization source, and controlled by the MassLynx (v. 4.1) software. Separation was performed on a Waters Acquity UPLC BEH C18 column (50 mm × 2.1 mm, 1.7 μm) at 40°C. […] Compounds were detected with accurate mass using leucine enkephalin for mass correction at 554.2615 (m/z) in negative ionization mode.

[2] = Metabolites in human liver microsomes (systems I-human, II-human); format: in vitro ADME
Method: Then, NADPH-B (10 μl) was added and the mixed solution incubated for 2 h. […] Next, UDPGA (50 μl) was added and the mixed solution incubated for 2 h. In addition, the naringenin solution (1 mM, 10 μl) was evaluated in human systems I and II as above.
(§2) The incubated solution (500 μl) of systems I-rat, II-rat, III-rat, I-human, and II-human were extracted with ethyl acetate (500 μl) for at least 3 min by vortexing and centrifuged for 10 min at 13,000 rpm and 4°C. The extraction process described above was performed twice and all supernatants were transferred into centrifuge tubes, dried with N2, and dissolved with methanol-water (1:1, v/v). All samples were injected into a UPLC/Q-TOF-MS system consisting of a Waters Acquity ultra performance liquid chromatography (UPLC) coupled with a Micromass micro™ quadrupole time-of-flight mass spectrometry (Q-TOF-MS) system (Waters Corp., Milford, MA, USA), equipped with an electrospray ionization source, and controlled by the MassLynx (v. 4.1) software. Separation was performed on a Waters Acquity UPLC BEH C18 column (50 mm × 2.1 mm, 1.7 μm) at 40°C. The mobile phase consisted of 0.1% formic acid (v/v) in water (A) and methanol (B) using a linear gradient of 95% to 60% A (0–25 min), 60% to 40% A (25–35 min), 40% to 10% A (35–40 min), 10% A (40–43 min), 10% to 95% A (43–44 min), and 95% A (44–45 min). The injection volume was 5 μl with flow rate of 0.2 ml min^-1. The Q-TOF-MS worked in a full scan mode (100–1,200 m/z), selection ion mode, and product ion mode, in negative ion mode, respectively. The conditions were as follows: capillary voltage 3,000 V, sample cone voltage 30 V, extraction cone voltage 2.0 V, source temperature 100°C, desolvation temperature 350°C, cone gas (N2) flow rate of 40 L/h, desolvation gas (N2) flow rate of 700 L/h, low collision energy 6.0 eV, and high collision energy 20–80 eV. Compounds were detected with accurate mass using leucine enkephalin for mass correction at 554.2615 (m/z) in negative ionization mode.

[3] = Metabolites in rat liver microsomes (systems I-rat, II-rat); format: in vitro ADME, Sprague-Dawley rat
Method: as §1, §2

[4] = target: T1, CYP 2D6 (Homo sapiens, UniProt P10635); test: CYP enzyme pathway, human liver microsomes with quinidine (system III-human); format: in vitro ADME; details: CYP2D6; of six metabolites measured in system III-human
T1 construct: human liver microsomes (2.25 μl); tissue RILD Research Institute for Live Diseases (Shanghai, China) Co.Ltd; host or cells: human liver microsomes, 10-donor pooled
Method: (§3) Five single inhibitor working solutions were separately added. Their concentrations were as follows: α-naphthoflavone (0.04 mM) for CYP 1A2, sulfaphenazole (0.8 mM) for CYP 2C9, (+/-)-N-3-benzylnirvanol (0.8 mM) for CYP 2C19, quinidine (0.08 mM) for CYP 2D6, and ketoconazole (0.04 mM) for CYP 3A4/5. All protein concentrations were 0.15 mg ml^-1 in the incubation system, except 0.3 mg ml^-1 for the sulfaphenazole working solution. Then, NADPH (10 mM, 30 μl) was added and the mixed solution incubated for 45 min. Finally, cold acetonitrile (600 μl, containing 100 ng ml^-1 flufenamic acid) was added to every tube, mixed by vortexing, centrifuged for 30 min at 14,000 g and 4°C, and the supernatants transferred into centrifuge tubes and injected into the UHPLC/MS/MS system as described above. Incubations were run in triplicate experiments.
(§4) To analyze compounds in incubation system III-human, a Luna C18 column (Phenomenex Inc., Torrance, CA, USA; 2.0 mm × 50 mm, 5 μm) was used at 40°C. The mobile phase consisted of 0.1% formic acid (v/v) in water (A) and 0.1% formic acid in acetonitrile (B). […] The injection volume was 10 μl with flow rate of 0.2 ml min^-1. The compounds were detected by multiple reaction monitoring in the negative ion electrospray mode.

[5] = target: T2, CYP 2C19 (Homo sapiens, UniProt P33261); test: CYP enzyme pathway, human liver microsomes with (+/-)-N-3-benzylnirvanol (system III-human); format: in vitro ADME; details: CYP2C19; of six metabolites measured in system III-human
T2 construct: human liver microsomes (2.25 μl); tissue RILD Research Institute for Live Diseases (Shanghai, China) Co.Ltd; host or cells: human liver microsomes, 10-donor pooled
Method: as §3, §4

[6] = target: T3, CYP 1A2 (Homo sapiens, UniProt P05177); test: CYP enzyme pathway, human liver microsomes with α-naphthoflavone (system III-human); format: in vitro ADME; details: CYP1A2; of six metabolites measured in system III-human
T3 construct: human liver microsomes (2.25 μl); tissue RILD Research Institute for Live Diseases (Shanghai, China) Co.Ltd; host or cells: human liver microsomes, 10-donor pooled
Method: as §3, §4

[7] = parameters: method as in Li P. et al., 2013; details: Sprague-Dawley rats, 16 g kg^-1; ref Li P. et al., 2013; cited from earlier work
[8] = target: T4, CYP 2C9 (Homo sapiens, UniProt P11712); test: CYP enzyme pathway, human liver microsomes with sulfaphenazole (system III-human); format: in vitro ADME; details: CYP2C9, major metabolic enzyme; of six metabolites measured in system III-human
T4 construct: human liver microsomes (2.25 μl); tissue RILD Research Institute for Live Diseases (Shanghai, China) Co.Ltd; host or cells: human liver microsomes, 10-donor pooled
Method: as §3, §4

[9] = parameters: method as in Liu M. et al., 2011; Li et al., 2014; details: Sprague-Dawley rats, 1,250 mg kg^-1 day^-1 for 184 days; ref Liu M. et al., 2011; Li et al., 2014; cited from earlier work
[10] = system: CYP 3A4/5; test: CYP enzyme pathway, human liver microsomes with ketoconazole (system III-human); format: in vitro ADME; details: CYP3A4/5; of six metabolites measured in system III-human
Method: as §3, §4

T3 sequence (P05177 whole entry): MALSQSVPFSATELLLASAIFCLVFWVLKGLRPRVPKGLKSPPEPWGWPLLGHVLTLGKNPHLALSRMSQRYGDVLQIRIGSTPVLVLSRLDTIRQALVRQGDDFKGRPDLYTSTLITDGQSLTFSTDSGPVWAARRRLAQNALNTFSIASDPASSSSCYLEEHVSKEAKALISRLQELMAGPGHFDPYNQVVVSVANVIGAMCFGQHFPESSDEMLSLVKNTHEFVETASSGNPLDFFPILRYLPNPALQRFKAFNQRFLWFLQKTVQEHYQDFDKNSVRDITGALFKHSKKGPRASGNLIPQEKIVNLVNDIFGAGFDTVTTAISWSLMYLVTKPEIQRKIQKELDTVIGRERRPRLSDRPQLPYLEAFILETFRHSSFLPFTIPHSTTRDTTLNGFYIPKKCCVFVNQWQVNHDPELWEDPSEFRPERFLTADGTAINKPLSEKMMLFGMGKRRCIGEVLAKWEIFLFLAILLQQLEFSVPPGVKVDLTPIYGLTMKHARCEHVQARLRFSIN
T1 sequence (P10635 whole entry): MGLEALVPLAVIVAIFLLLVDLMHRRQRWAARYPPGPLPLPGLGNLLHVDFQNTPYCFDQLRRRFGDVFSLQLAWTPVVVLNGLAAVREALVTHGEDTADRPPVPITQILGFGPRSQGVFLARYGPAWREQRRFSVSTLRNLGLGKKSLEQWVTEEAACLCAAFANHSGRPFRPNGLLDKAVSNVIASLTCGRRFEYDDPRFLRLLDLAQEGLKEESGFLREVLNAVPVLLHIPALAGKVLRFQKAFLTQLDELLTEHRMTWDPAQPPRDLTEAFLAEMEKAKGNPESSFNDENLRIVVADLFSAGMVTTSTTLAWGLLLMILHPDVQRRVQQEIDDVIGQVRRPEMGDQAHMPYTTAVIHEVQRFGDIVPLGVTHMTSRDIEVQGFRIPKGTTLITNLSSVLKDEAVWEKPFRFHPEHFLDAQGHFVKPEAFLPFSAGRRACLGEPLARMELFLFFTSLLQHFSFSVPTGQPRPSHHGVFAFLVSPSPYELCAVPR
T4 sequence (P11712 whole entry): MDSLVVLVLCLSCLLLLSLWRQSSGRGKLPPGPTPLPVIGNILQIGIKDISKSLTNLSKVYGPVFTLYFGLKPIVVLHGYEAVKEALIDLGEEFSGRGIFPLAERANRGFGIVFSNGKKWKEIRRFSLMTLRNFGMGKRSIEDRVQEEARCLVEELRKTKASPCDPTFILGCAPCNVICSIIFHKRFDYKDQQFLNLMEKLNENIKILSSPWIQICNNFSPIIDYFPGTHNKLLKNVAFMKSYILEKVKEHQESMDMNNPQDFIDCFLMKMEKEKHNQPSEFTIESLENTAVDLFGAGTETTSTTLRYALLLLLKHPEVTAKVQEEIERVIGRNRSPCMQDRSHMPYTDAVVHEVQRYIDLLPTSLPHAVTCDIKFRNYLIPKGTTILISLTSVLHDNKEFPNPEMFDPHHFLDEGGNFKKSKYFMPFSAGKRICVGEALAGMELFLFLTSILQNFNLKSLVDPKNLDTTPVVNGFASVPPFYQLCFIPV
T2 sequence (P33261 whole entry): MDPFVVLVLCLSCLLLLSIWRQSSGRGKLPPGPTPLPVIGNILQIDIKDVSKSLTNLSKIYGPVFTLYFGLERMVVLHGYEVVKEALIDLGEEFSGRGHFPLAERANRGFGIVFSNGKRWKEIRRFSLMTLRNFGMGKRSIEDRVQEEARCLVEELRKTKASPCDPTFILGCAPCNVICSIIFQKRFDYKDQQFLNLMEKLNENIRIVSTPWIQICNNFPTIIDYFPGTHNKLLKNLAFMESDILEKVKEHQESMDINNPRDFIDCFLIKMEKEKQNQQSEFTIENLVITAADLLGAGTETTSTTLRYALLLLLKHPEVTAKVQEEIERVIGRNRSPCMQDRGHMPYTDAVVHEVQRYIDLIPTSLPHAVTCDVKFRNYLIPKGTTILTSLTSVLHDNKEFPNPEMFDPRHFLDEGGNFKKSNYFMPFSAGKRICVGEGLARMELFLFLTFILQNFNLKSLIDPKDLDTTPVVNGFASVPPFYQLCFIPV

found in rat kidney microsomes, incubation of G/S [1]	found in human liver microsomes, incubation of naringenin (S) [2]	found in rat liver microsomes, incubation of naringenin (S) [3]	Compound	metabolites the enzyme contributes to [4]	metabolites the enzyme contributes to [5]	metabolites the enzyme contributes to [6]	toxicity after a single p.o. bolus dose [7]	metabolites the enzyme is responsible for [8]	adverse effects in toxicity study [9]	metabolites the enzyme contributes to [10]
+	+	+	O=C1C[C@@H](c2ccc(O)cc2)Oc2cc(O)cc(O)c21 [naringenin, Naringenin]							
			C[C@@H]1O[C@@H](O[C@H]2[C@H](Oc3cc(O)c4c(c3)O[C@H](c3ccc(O)cc3)CC4=O)O[C@H](CO)[C@@H](O)[C@@H]2O)[C@H](O)[C@H](O)[C@H]1O [naringin, Naringin]	three metabolites	four metabolites	one metabolite	no apparent toxicity	six metabolites	no adverse effects	two metabolites
